Converted amounts (≈) assume the structure as drawn.
Legend:
[1] = Inhibition of Mycobacterium smegmatis thioredoxin 6xHis-tagged decaprenylphosphoryl-beta-D-ribose2'-epimerase1 overexpressed in Escherichia coli rossetta cells using farnesyl-phosphoryl-beta-D-ribofuranose as substrate; design: species or system Mycolicibacterium smegmatis
[2] = test system: Mycobacterium tuberculosis; assay: Antimicrobial activity against Mycobacterium tuberculosis H37Rv ATCC 27294 assessed as growth inhibition after 5 days by microdilution method; format: functional; details: H37Rv ATCC 27294, 120 h
[3] = target: Voltage-gated inwardly rectifying potassium channel KCNH2 (Homo sapiens, UniProt Q12809); assay: Inhibition of human ERG
Chain of Voltage-gated inwardly rectifying potassium channel KCNH2 (Q12809 whole entry): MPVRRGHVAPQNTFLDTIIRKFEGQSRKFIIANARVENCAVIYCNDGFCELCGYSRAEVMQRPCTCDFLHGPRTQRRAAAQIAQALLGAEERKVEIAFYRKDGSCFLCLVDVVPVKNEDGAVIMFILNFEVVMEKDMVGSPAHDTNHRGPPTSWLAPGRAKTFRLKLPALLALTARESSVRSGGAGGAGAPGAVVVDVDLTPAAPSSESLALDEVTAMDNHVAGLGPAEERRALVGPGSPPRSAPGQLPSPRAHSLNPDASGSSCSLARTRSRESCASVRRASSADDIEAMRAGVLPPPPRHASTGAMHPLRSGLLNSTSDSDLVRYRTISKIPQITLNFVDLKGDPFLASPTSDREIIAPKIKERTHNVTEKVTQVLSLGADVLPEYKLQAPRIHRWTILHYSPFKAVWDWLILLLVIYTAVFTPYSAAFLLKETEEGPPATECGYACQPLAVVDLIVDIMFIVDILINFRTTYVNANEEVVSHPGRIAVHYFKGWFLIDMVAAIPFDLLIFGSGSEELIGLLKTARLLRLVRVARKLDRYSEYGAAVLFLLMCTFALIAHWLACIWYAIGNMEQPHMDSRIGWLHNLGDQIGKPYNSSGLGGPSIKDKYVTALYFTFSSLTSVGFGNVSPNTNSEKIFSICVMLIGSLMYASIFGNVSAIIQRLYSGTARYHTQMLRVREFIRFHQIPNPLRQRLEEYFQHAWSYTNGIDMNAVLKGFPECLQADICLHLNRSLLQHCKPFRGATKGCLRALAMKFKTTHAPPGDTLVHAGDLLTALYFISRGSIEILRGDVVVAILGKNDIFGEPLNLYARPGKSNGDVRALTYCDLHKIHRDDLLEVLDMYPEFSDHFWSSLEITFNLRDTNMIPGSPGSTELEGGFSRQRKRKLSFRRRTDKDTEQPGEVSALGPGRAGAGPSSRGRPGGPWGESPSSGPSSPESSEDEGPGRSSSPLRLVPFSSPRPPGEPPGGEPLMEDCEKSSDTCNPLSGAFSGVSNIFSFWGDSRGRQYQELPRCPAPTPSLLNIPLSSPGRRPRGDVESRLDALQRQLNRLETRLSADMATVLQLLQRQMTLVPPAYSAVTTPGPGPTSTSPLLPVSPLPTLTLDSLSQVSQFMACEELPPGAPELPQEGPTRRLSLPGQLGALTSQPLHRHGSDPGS

[4] = Cytotoxicity against human A549 cells assessed as cell viability after 72 hrs by resazurin staining-based fluorimetric analysis; details: read-out: MIC
Cytochrome P450 2C9 = Cytochrome P450 2C9 (Homo sapiens, UniProt P11712); assay: Inhibition of human CYP2C9; format: ADME
Chain of Cytochrome P450 2C9 (P11712 whole entry): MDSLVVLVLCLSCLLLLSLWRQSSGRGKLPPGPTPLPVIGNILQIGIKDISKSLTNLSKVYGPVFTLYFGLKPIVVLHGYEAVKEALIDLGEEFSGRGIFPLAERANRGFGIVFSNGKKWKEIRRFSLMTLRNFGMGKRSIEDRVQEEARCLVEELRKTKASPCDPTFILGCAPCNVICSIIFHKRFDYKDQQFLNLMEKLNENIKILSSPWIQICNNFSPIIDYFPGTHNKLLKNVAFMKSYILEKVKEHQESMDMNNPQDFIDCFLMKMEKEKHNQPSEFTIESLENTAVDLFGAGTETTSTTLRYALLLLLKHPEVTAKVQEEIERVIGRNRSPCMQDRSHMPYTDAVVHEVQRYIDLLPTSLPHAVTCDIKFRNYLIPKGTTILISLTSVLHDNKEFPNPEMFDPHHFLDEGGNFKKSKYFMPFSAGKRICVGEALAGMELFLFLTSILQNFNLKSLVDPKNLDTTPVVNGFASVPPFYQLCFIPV

Cytochrome P450 1A2 = target: T1, Cytochrome P450 1A2 (Homo sapiens, UniProt P05177); assay: Inhibition of human CYP1A2; format: ADME
T1 sequence (P05177 whole entry): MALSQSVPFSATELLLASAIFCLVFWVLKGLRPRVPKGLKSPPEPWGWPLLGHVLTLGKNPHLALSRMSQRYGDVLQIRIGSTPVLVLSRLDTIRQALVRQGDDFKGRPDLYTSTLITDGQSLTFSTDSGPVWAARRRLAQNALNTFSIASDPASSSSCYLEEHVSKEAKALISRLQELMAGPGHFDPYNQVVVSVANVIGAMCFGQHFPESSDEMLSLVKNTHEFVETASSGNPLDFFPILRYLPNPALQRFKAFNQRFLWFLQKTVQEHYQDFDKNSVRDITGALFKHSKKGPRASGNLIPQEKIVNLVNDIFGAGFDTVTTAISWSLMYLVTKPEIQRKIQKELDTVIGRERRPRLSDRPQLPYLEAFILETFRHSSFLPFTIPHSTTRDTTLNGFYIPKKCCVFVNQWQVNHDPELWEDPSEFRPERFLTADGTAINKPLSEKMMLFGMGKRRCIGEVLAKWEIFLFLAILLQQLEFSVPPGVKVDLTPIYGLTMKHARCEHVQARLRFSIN

Cytochrome P450 2C19 = Cytochrome P450 2C19 (Homo sapiens, UniProt P33261); assay: Inhibition of human CYP2C19; format: ADME
Chain of Cytochrome P450 2C19 (P33261 whole entry): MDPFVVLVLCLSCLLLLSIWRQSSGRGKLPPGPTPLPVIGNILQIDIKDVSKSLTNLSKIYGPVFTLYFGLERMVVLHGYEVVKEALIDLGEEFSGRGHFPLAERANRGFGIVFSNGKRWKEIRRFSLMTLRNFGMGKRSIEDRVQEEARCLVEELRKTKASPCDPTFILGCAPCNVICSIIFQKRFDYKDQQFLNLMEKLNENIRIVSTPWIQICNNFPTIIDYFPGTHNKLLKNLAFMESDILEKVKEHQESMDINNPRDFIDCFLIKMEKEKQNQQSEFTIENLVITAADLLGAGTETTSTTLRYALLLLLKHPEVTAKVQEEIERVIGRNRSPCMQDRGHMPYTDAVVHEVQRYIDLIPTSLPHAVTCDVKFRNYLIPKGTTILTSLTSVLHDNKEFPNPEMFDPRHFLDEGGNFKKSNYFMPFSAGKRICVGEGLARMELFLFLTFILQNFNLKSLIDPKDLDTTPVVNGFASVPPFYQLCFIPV

[5] = Unbound fraction in human plasma; format: ADME, cell-free
Cytochrome P450 2D6 = Cytochrome P450 2D6 (Homo sapiens, UniProt P10635); assay: Inhibition of human CYP2D6; format: ADME
Chain of Cytochrome P450 2D6 (P10635 whole entry): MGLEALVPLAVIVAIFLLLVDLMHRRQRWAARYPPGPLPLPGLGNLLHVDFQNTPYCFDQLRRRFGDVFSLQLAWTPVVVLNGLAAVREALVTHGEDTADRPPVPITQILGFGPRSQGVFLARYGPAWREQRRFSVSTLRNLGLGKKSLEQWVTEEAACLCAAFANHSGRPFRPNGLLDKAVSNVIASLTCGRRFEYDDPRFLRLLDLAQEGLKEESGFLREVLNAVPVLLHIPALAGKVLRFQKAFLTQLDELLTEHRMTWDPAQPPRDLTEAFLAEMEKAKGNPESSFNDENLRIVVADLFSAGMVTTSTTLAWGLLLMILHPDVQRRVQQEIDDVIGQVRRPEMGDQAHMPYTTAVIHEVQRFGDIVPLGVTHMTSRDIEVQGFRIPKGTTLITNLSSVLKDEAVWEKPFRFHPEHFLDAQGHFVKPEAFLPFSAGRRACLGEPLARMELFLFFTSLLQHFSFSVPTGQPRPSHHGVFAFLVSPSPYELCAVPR

[6] = test system: Mycobacterium tuberculosis; assay: Bactericidal activity against hypoxia induced nonreplicating persistent Mycobacterium tuberculosis H37Rv after 7 days; format: functional; details: 168 h
[7] = Inhibition of Mycobacterium smegmatis thioredoxin 6xHis-tagged decaprenylphosphoryl-beta-D-ribose2'-epimerase1 Y321H mutant overexpressed in Escherichia coli rossetta cells using farnesyl-phosphoryl-beta-D-ribofuranose as substrate; design: species or system Mycolicibacterium smegmatis
Cytochrome P450 3A4 = Cytochrome P450 3A4 (Homo sapiens, UniProt P08684); assay: Inhibition of human CYP3A4; format: ADME
Chain of Cytochrome P450 3A4 (P08684 whole entry): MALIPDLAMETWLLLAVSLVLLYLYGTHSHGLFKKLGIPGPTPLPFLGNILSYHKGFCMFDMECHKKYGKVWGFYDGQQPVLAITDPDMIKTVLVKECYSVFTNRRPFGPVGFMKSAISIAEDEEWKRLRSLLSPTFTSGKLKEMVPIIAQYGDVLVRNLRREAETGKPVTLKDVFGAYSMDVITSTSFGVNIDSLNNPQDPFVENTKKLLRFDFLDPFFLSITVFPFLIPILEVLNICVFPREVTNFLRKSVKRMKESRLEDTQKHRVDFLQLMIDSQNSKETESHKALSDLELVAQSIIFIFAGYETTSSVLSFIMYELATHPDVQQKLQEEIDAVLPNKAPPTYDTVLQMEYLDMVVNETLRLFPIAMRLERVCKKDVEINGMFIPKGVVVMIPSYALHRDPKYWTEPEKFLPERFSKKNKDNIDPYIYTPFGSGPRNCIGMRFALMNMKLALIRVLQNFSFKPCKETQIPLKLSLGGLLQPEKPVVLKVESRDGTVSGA

[8] = Inhibition of Mycobacterium smegmatis thioredoxin 6xHis-tagged decaprenylphosphoryl-beta-D-ribose2'-epimerase1 C394G mutant overexpressed in Escherichia coli rossetta cells using farnesyl-phosphoryl-beta-D-ribofuranose as substrate; design: species or system Mycolicibacterium smegmatis
[9] = test system: Mycobacterium tuberculosis; assay: Bactericidal activity against Mycobacterium tuberculosis H37Rv ATCC 27294 after 5 days by microdilution method; format: functional; details: H37Rv ATCC 27294, 120 h
[10] = Kinetic solubility of the compound in phosphate buffer at pH 7.4 after 24 hrs by LC-MS analysis; format: physicochemical; details: read-out: Kinetic_solubility
[11] = test system: Mycobacterium tuberculosis; assay: Antimicrobial activity against Mycobacterium tuberculosis H37Rv ATCC 27294 infected in BALB/C mouse chronic infection model assessed as reduced bacterial burden in lungs at 30 to 100 mg/kg, po administered on day 28 measured after 4 weeks; format: functional, Lung; details: dose mg/kg 30-100
[12] = test system: Mycobacterium tuberculosis; assay: Antimicrobial activity against Mycobacterium tuberculosis H37Rv ATCC 27294 infected in BALB/C mouse acute infection model assessed as reduced bacterial burden in lungs at 50 to 100 mg/kg, po administered 3 days postinfection measured after 4 weeks; format: functional, Lung; details: dose mg/kg 50-100
[13] = AUC in BALB/C mouse infected with Mycobacterium tuberculosis H37Rv ATCC 27294 at 50 to 200 mg/kg, po qd administered for 24 days by LC-MS/MS analysis; format: ADME, organism-based; design: dose 50-200 mg/kg, route oral; details: plasma
[14] = test system: Mycobacterium tuberculosis; assay: Antimicrobial activity against po dosed Mycobacterium tuberculosis H37Rv ATCC 27294 infected BALB/C mouse chronic infection model assessed as reduced bacterial burden in lungs administered on day 28 measured after 4 weeks; format: functional, organism-based; details: Lung
[15] = test system: Mycobacterium tuberculosis; assay: Bactericidal activity against Mycobacterium tuberculosis H37Rv ATCC 27294 infected in human THP1 cells assessed as reduction in CFU at 1 to 4 times MIC at day 10 by time-kill method; format: functional, THP-1
Mus musculus = assay: fT>MIC in BALB/C mouse infected with Mycobacterium tuberculosis H37Rv ATCC 27294 at 50 to 200 mg/kg, po qd after 10 to 24 hrs
[16] = test system: Mycobacterium tuberculosis; assay: Bactericidal activity against hypoxia induced nonreplicating persistent Mycobacterium tuberculosis H37Rv assessed as reduction in CFU at 30 times MIC; format: functional
[17] = test system: Mycobacterium tuberculosis; assay: Bactericidal activity against Mycobacterium tuberculosis H37Rv ATCC 27294 infected in human THP1 cells assessed as reduction in CFU at 1 to 4 times MIC by time-kill method; format: functional, THP-1
[18] = test system: Mycobacterium tuberculosis; assay: Antimicrobial activity against po dosed Mycobacterium tuberculosis H37Rv ATCC 27294 infected BALB/C mouse acute infection model assessed as reduced bacterial burden in lungs administered 3 days postinfection measured after 4 weeks; format: functional, organism-based; details: Lung

## Cc1ccc(Cn2cc(C(=O)NCC3CC3)c3ncccc32)cc1
[1]
  IC50: 21 nM
[2]
  MIC: 13.2 µM (≈ 4.22 µg/mL)

## COc1ccc(Cn2cc(C(=O)N(C)CC3CC3)c3ncccc32)cc1
[1]
  IC50: > 10000 nM
[2]
  MIC: > 200 µM

## Cc1ccc(Cn2cc(C(=O)NCC3CCC(F)(F)CC3)c3ncccc32)c(C)c1
[1]
  IC50: 7900 nM
[2]
  MIC: > 200 µM

## COc1ccc(Cn2cc(C(=O)NCC3CC3)c3cnccc32)cc1
[1]
  IC50: 1000 nM
[2]
  MIC: > 200 µM

## Cc1ccccc1Cn1cc(C(=O)NCC2CC2)c2ncccc21
[3]
  INH: 28 µM
[4]
  MCC at 72 h: 94 µM

## Cc1ccc(Cn2cc(C(=O)NCCc3ccncc3)c3ncccc32)c(C)c1
[1]
  IC50: 5500 nM
[2]
  MIC: > 200 µM

## COc1ncnc(Cn2cc(C(=O)NCCF)c3ncc(C)cc32)c1C
Cytochrome P450 2C9
  INH: > 50 µM
Cytochrome P450 1A2
  INH: > 50 µM
Cytochrome P450 2C19
  INH: > 50 µM
[5]
  fraction unbound: 0.05
[1]
  IC50: 3 nM
[2]
  MIC: < 0.39 µM
[3]
  INH: > 33 µM
Cytochrome P450 2D6
  INH: > 50 µM
[6]
  MBC: 100 µM (≈ 35.7 µg/mL)
[7]
  IC50: > 10000 nM
[4]
  MCC at 72 h: > 100 µM
Cytochrome P450 3A4
  INH: > 50 µM
[8]
  IC50: 7 nM
[9]
  MBC: < 0.39 µM
[10]
  solubility kinetic at 24 h: 4 µM (≈ 1.43 µg/mL)

## COc1ccc(Cn2cc(C(=O)NCC3CC3)c3ncccc32)cc1
[1]
  IC50: 7 nM
[2]
  MIC: 6.25 µM (≈ 2.1 µg/mL)

## COc1ncnc(Cn2cc(C(=O)NC[C@@H](C)F)c3ncccc32)c1C
[2]
  MIC: 0.78 µM (≈ 0.279 µg/mL)

## O=C(NCC1CC1)c1cn(CC2CCOCC2)c2cccnc12
[1]
  IC50: 2500 nM
[2]
  MIC: > 100 µM

## COc1cccc(F)c1Cn1cc(C(=O)NCC2CC2)c2ncccc21
[1]
  IC50: 6 nM
[2]
  MIC: 1.56 µM (≈ 0.551 µg/mL)

## Cc1cnc2c(C(=O)NCCF)cn(Cc3ncnc(N(C)C)c3C)c2c1
[1]
  IC50: 37 nM
[2]
  MIC: 0.78 µM (≈ 0.289 µg/mL)

## CCc1nc2cc(Cl)ccn2c1C(=O)NCc1ccc(N2CCN(c3ccc(F)cc3)CC2)cc1
[1]
  IC50: > 10000 nM
[2]
  MIC: 0.017 µM (≈ 0.00836 µg/mL)
[6]
  MBC: > 100 µM
[9]
  MBC: > 200 µM

## Cc1c(Cn2cc(C(=O)NCCF)c3ncccc32)ncnc1N(C)C
[1]
  IC50: 20 nM
[2]
  MIC: 6.25 µM (≈ 2.23 µg/mL)

## COc1ncnc(Cn2cc(C(=O)NCCF)c3ncccc32)c1C
[11]
  log10cfu: >1.5
[12]
  log10cfu: >1.5
Cytochrome P450 2C9
  INH: > 50 µM
[13]
  AUC at 576 h: 200 µM·h
[14]
  Activity: Dose-dependent effect
[15]
  log10cfu: 4
Mus musculus
  %T>MIC: 25%
Cytochrome P450 1A2
  INH: > 50 µM
Cytochrome P450 2C19
  INH: > 50 µM
[5]
  fraction unbound: 0.098
[1]
  IC50: 10 nM
[16]
  log10cfu: 1.5
[2]
  MIC: 1.56 µM (≈ 0.536 µg/mL)
[3]
  INH: > 33 µM
Cytochrome P450 2D6
  INH: > 50 µM
[6]
  MBC: 50 µM (≈ 17.2 µg/mL)
[7]
  IC50: > 10000 nM
[4]
  MCC at 72 h: > 100 µM
Cytochrome P450 3A4
  INH: > 50 µM
[17]
  log10cfu: 1
[8]
  IC50: 15 nM
[9]
  MBC: 1.56 µM (≈ 0.536 µg/mL)
[10]
  solubility kinetic at 24 h: 8 µM (≈ 2.75 µg/mL)
[18]
  Activity: Dose-dependent effect

## Cc1ccc(Cn2cc(C(=O)NCCF)c3ncccc32)c(C)c1
[1]
  IC50: 10 nM
[2]
  MIC: 1.56 µM (≈ 0.508 µg/mL)

## Cc1ccccc1Cn1cc(C(=O)NCCN2CCCCC2)c2ncccc21
[1]
  IC50: > 10000 nM
[2]
  MIC: > 200 µM

## COc1ncnc(Cn2cc(C(=O)NCC3CC3)c3ncccc32)c1C
Cytochrome P450 2C9
  INH: > 50 µM
[13]
  AUC at 576 h: 200 µM·h
Cytochrome P450 1A2
  INH: > 50 µM
Cytochrome P450 2C19
  INH: > 50 µM
[3]
  INH: > 33 µM
Cytochrome P450 2D6
  INH: > 50 µM
[4]
  MCC at 72 h: > 100 µM
Cytochrome P450 3A4
  INH: > 50 µM

## COc1ncnc(Cn2cc(C(=O)NCCO)c3ncccc32)c1C
[1]
  IC50: 90 nM
[2]
  MIC: 14 µM (≈ 4.78 µg/mL)

## Cc1cccnc1Cn1cc(C(=O)NCC2CC2)c2ncccc21
[1]
  IC50: 83 nM
[2]
  MIC: 27 µM (≈ 8.65 µg/mL)

## COc1ncnc(Cn2cc(C(=O)NCCO)c3ncc(C)cc32)c1C [TBA-7371]
Cytochrome P450 2C9
  INH: > 50 µM
Cytochrome P450 1A2
  INH: > 50 µM
Cytochrome P450 2C19
  INH: > 50 µM
[1]
  IC50: 10 nM
[2]
  MIC: 1.56 µM (≈ 0.554 µg/mL)
[3]
  INH: > 33 µM
Cytochrome P450 2D6
  INH: > 50 µM
[6]
  MBC: > 100 µM
[7]
  IC50: > 10000 nM
[4]
  MCC at 72 h: > 100 µM
Cytochrome P450 3A4
  INH: > 50 µM
[8]
  IC50: 10 nM
[9]
  MBC: 0.78 µM (≈ 0.277 µg/mL)

## COCCNC(=O)c1cn(Cc2cc(F)cnc2OC)c2cccnc12
[1]
  IC50: 4 nM
[2]
  MIC: 0.78 µM (≈ 0.28 µg/mL)

## COc1ncnc(Cn2cc(C(=O)NC[C@H](C)F)c3ncc(C)cc32)c1C
[1]
  IC50: 14 nM
[2]
  MIC: 0.156 µM (≈ 0.0579 µg/mL)

— ChEMBL document CHEMBL3108774, “Azaindoles: noncovalent DprE1 inhibitors from scaffold morphing efforts, kill Mycobacterium tuberculosis and are efficacious in vivo” (J Med Chem, 2013)
